Legend:
[1] = adult population, Nawrot et al. 2003, cited from earlier work
[2] = test system: ciliated cells; test: In vitro experiments with ciliated cells (ascorbic acid); assay type: cell-based; details: several in vitro experiments
Experimental: When ascorbic acid is added to the present disclosure composition, the pH of the final composition should be adapted to values between about 6-8 and preferably between about pH 7-7.5 by adding a small amount of sodium bicarbonate or other pH regulating agents.

| Structure (SMILES) | daily intake not associated with adverse effects [1] [mg per day] | daily intake not associated with adverse effects, per bodyweight ([1]; equivalent of the mg per day level) | effect on the ciliary beat frequency [2] |
| --- | --- | --- | --- |
| Cn1c(=O)c2c(ncn2C)n(C)c1=O [Caffeine, 1,3,7-trimethylxanthine] | < 400 | about 6 mg/kg bodyweight | – |
| O=C1O[C@H]([C@@H](O)CO)C(O)=C1O [ascorbic acid] | – | – | increases the ciliary beat frequency |

— US20200085831A1, “NASAL COMPOSITIONS STIMULATING CILIARY ACTIVITY” (Innotesto BVBA, priority 2013, published 2020)
